Values joined by “and” are separate entries in the source; they are usually repeats but may differ in a detail not shown here. Equal entries are not always repeated. Inconclusive results and toxic doses are left out. How the source made its calls: active means survival T/C of 150% or more; inactive means T/C below 125% in these data.
System: P388 leukemia ip, CD2F1 mice, survival T/C
Assay: NCI In Vivo Anticancer Drug Screen. Data for tumor model P388 Leukemia (intraperitoneal) in CD2F1 (CDF1) mice
Details: endpoint: median survival time, higher = longer survival
Summary of the method: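 Mice carrying the transplanted tumor received test compound or vehicle. Survival was recorded in each group, and the value is the treated-group measurement divided by that of the vehicle-treated control group.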

[1] = dose: 50.0 mg/kg/injection, schedule: Q01DX005 (ip), vehicle: saline with Tween-80
[2] = dose: 100.0 mg/kg/injection, schedule: Q01DX005 (ip), vehicle: saline with Tween-80
[3] = dose: 200.0 mg/kg/injection, schedule: Q01DX005 (ip), vehicle: saline with Tween-80
[4] = dose: 25.0 mg/kg/injection, schedule: Q01DX009 (ip), vehicle: saline
[5] = dose: 50.0 mg/kg/injection, schedule: Q01DX009 (ip), vehicle: saline
[6] = dose: 100.0 mg/kg/injection, schedule: Q01DX009 (ip), vehicle: saline
[7] = dose: 200.0 mg/kg/injection, schedule: Q01DX009 (ip), vehicle: saline
[8] = dose: 50.0 mg/kg/injection, schedule: Q01DX005 (ip), vehicle: Klucel (hydroxypropylcellulose) (HPC)
[9] = dose: 100.0 mg/kg/injection, schedule: Q01DX005 (ip), vehicle: Klucel (hydroxypropylcellulose) (HPC)
[10] = dose: 200.0 mg/kg/injection, schedule: Q01DX005 (ip), vehicle: Klucel (hydroxypropylcellulose) (HPC)
[11] = dose: 50.0 mg/kg/injection, schedule: Q01DX009 (ip), vehicle: saline with Tween-80
[12] = dose: 100.0 mg/kg/injection, schedule: Q01DX009 (ip), vehicle: saline with Tween-80
[13] = dose: 200.0 mg/kg/injection, schedule: Q01DX009 (ip), vehicle: saline with Tween-80
[14] = dose: 400.0 mg/kg/injection, schedule: Q01DX009 (ip), vehicle: saline with Tween-80
[15] = dose: 100.0 mg/kg/injection, schedule: Q04DX003 (ip), vehicle: saline with Tween-80
[16] = dose: 200.0 mg/kg/injection, schedule: Q04DX003 (ip), vehicle: saline with Tween-80
[17] = dose: 400.0 mg/kg/injection, schedule: Q04DX003 (ip), vehicle: saline with Tween-80
[18] = dose: 50.0 mg/kg/injection, schedule: Q01DX009 (ip), vehicle: Klucel (hydroxypropylcellulose) (HPC)
[19] = dose: 100.0 mg/kg/injection, schedule: Q01DX009 (ip), vehicle: Klucel (hydroxypropylcellulose) (HPC)

Measured: T/C

C=C1CC2(CCCCC2C(C)(C)C)OC1=O (centres undefined)
inactive: dose: 100.0 mg/kg/injection, schedule: Q04DX002 (ip), vehicle: saline 100 % of control | dose: 200.0 mg/kg/injection, schedule: Q04DX002 (ip), vehicle: saline 99 % of control | dose: 400.0 mg/kg/injection, schedule: Q04DX002 (ip), vehicle: saline 99 % of control

COc1cccc2c1C(=O)c1c(O)c3c(c(O)c1C2=O)CC(OC1CC(N)C(O)C(C)O1)(C(C)=O)CC3OC1CC(N)C(O)C(C)O1 (centres undefined)
inactive: dose: 1.56 mg/kg/injection, schedule: Q01DX009 (ip), vehicle: water 107 % of control | dose: 3.13 mg/kg/injection, schedule: Q01DX009 (ip), vehicle: water 103 % of control | dose: 6.25 mg/kg/injection, schedule: Q01DX009 (ip), vehicle: water 108 % of control | dose: 12.5 mg/kg/injection, schedule: Q01DX009 (ip), vehicle: water 122 % of control

Cc1ccc(CN2CC(=O)N3Cc4ccccc4CN3C(=O)C2)cc1
inactive: [1] 103 % of control | [2] 116 % of control | [3] 98 % of control

CC(=O)CC(=O)CCC(=O)O
inactive: [4] 100 % of control | [5] 105 % of control | [6] 110 % of control | [7] 117 % of control | dose: 400.0 mg/kg/injection, schedule: Q01DX009 (ip), vehicle: saline 94 % of control

CS(=O)(=O)N1C=Cc2ccccc2C=C1
inactive: dose: 100.0 mg/kg/injection, schedule: Q04DX002 (ip), vehicle: saline with Tween-80 99 % of control | dose: 200.0 mg/kg/injection, schedule: Q04DX002 (ip), vehicle: saline with Tween-80 90 % of control | dose: 400.0 mg/kg/injection, schedule: Q04DX002 (ip), vehicle: saline with Tween-80 99 % of control

CC1(C)CC(=O)C(C(=O)c2ccccc2)=[N+]1[O-]
inactive: [8] 97 % of control | [9] 100 % of control | [10] 99 % of control

Cc1c(CCNC=O)cc(C)c2c3c(oc12)CCCC3
inactive: [11] 91 % of control | [12] 91 % of control | [13] 94 % of control | [14] 91 % of control

CCn1c2ccccc2c2cc(NC(=O)N3CCCCC3)ccc21
inactive: [1] 95 % of control | [2] 95 % of control | [3] 90 % of control

CCCCCCCCOCC(=O)OC
inactive: [11] 106 % of control | [12] 107 % of control | [13] 101 % of control

CSC(=S)/C=C(\O)c1ccccc1
inactive: dose: 100.0 mg/kg/injection, schedule: Q04DX003 (ip), vehicle: saline 95 % of control | dose: 200.0 mg/kg/injection, schedule: Q04DX003 (ip), vehicle: saline 104 % of control

FC(F)(F)c1cccc(C(Nc2nncs2)Nc2nncs2)c1
inactive: [1] 96 % of control | [2] 91 % of control | [3] 88 % of control

Oc1c2c(c3cccc4cccc1c43)=Nc1ccccc1S2
inactive: [1] 95 % of control | [2] 94 % of control | [3] 90 % of control

O=c1[nH]c(=O)c2nc(-c3ccc(Cl)cc3)cnc2[nH]1
inactive: [15] 94 % of control | [16] 102 % of control | [17] 101 % of control

CN1CCOc2cc3nc4ccccc4nc3cc21
inactive: [4] 107 % of control | [5] 98 % of control | [6] 105 % of control

O=c1n(-c2ccccc2)c(=O)n2n1CC(c1ccccc1)=N2
inactive: dose: 100.0 mg/kg/injection, schedule: Q01DX009 (ip), vehicle: other 99 % of control | dose: 200.0 mg/kg/injection, schedule: Q01DX009 (ip), vehicle: other 91 % of control | dose: 400.0 mg/kg/injection, schedule: Q01DX009 (ip), vehicle: other 89 % of control

CC1=CCC2C(C)(C)CCCC2(C)C1CCC(C)(O)C(O)CO (centres undefined)
inactive: dose: 25.0 mg/kg/injection, schedule: Q01DX005 (ip), vehicle: Klucel + Tween-80 98 % of control | dose: 50.0 mg/kg/injection, schedule: Q01DX005 (ip), vehicle: Klucel + Tween-80 101 % of control | dose: 100.0 mg/kg/injection, schedule: Q01DX005 (ip), vehicle: Klucel + Tween-80 98 % of control | dose: 200.0 mg/kg/injection, schedule: Q01DX005 (ip), vehicle: Klucel + Tween-80 100 % of control

O=[N+]([O-])c1cccc2nc(-c3ccccn3)n(CCc3ccncc3)c12
inactive: dose: 50.0 mg/kg/injection, schedule: Q01DX001 (ip), vehicle: Klucel (hydroxypropylcellulose) (HPC) 104 % of control | dose: 100.0 mg/kg/injection, schedule: Q01DX001 (ip), vehicle: Klucel (hydroxypropylcellulose) (HPC) 104 % of control | dose: 200.0 mg/kg/injection, schedule: Q01DX001 (ip), vehicle: Klucel (hydroxypropylcellulose) (HPC) 101 % of control

CO[C@H]1[C@H]2OC(C)(C)O[C@H]2O[C@H]1/C=C1\CC(=O)NC1=O
inactive: [5] 111 % of control | dose: 50.0 mg/kg/injection, schedule: Q01DX009 (ip), vehicle: suspension in saline 96 % of control | [6] 116 % of control | dose: 100.0 mg/kg/injection, schedule: Q01DX009 (ip), vehicle: suspension in saline 104 % of control | dose: 200.0 mg/kg/injection, schedule: Q01DX009 (ip), vehicle: suspension in saline 110 % of control

COc1ncnc2c1ncn2C1CCCCO1 (centres undefined)
inactive: [1] 97 % of control | [2] 101 % of control | [3] 99 % of control

Cc1ccc(N=Nc2c(C)noc2C)c(Br)c1
inactive: dose: 60.0 mg/kg/injection, schedule: Q01DX005 (ip), vehicle: Klucel (hydroxypropylcellulose) (HPC) 93 % of control | dose: 120.0 mg/kg/injection, schedule: Q01DX005 (ip), vehicle: Klucel (hydroxypropylcellulose) (HPC) 100 % of control | dose: 240.0 mg/kg/injection, schedule: Q01DX005 (ip), vehicle: Klucel (hydroxypropylcellulose) (HPC) 92 % of control

CC1(C)C2CCC(C2)C1/C=C1/SC(=S)NC1=O (centres undefined)
inactive: [8] 99 % of control | [9] 100 % of control | [10] 100 % of control

CCOC(=O)c1cc2c(=O)oc3ccccc3c2oc1=O
inactive: dose: 12.5 mg/kg/injection, schedule: Q01DX009 (ip), vehicle: saline with Tween-80 105 % of control | dose: 25.0 mg/kg/injection, schedule: Q01DX009 (ip), vehicle: saline with Tween-80 98 % of control | [11] 100 % of control

Cc1c(Cl)cccc1NS(=O)(=O)c1ccccc1
inactive: [15] 104 % of control | [16] 104 % of control | [17] 90 % of control

Oc1cccc(/C=N/N=C/c2cccc(O)c2O)c1O
inactive: [18] 96 % of control | [19] 93 % of control

C=CCNCCN1CCN(CCCN2c3ccccc3Sc3ccc(C(F)(F)F)cc32)CC1
inactive: dose: 25.0 mg/kg/injection, schedule: Q04DX003 (ip), vehicle: saline 91 % of control | dose: 50.0 mg/kg/injection, schedule: Q04DX003 (ip), vehicle: saline 119 % of control and 97 % of control

CC(=O)Nc1ncnc2c(C3OC(COC(C)=O)C(OC(C)=O)C3OC(C)=O)[nH]nc12 (centres undefined)
inactive: dose: 60.0 mg/kg/injection, schedule: Q01DX005 (ip), vehicle: saline with Tween-80 105 % of control | dose: 120.0 mg/kg/injection, schedule: Q01DX005 (ip), vehicle: saline with Tween-80 95 % of control

Cc1nsc(Br)c1[N+](=O)[O-]
inactive: [4] 105 % of control | [5] 107 % of control | [6] 107 % of control | [15] 103 % of control | [7] 109 % of control | [16] 108 % of control | [17] 115 % of control

CC(C)CCN=Cc1ccccc1O.CC(C)CCN=Cc1ccccc1O.[Zn]
inactive: [18] 98 % of control | [19] 104 % of control

O=C(O)C1CCCCC1c1c2ccc(=O)cc-2oc2cc(O)ccc12 (centres undefined)
inactive: [12] 90 % of control | [13] 95 % of control | [14] 100 % of control

NNC(=O)c1cnn(-c2ccc(N(CCO)CCO)nn2)c1N
inactive: dose: 75.0 mg/kg/injection, schedule: Q01DX005 (ip), vehicle: other 107 % of control | dose: 150.0 mg/kg/injection, schedule: Q01DX005 (ip), vehicle: other 107 % of control | dose: 250.0 mg/kg/injection, schedule: Q01DX005 (oral), vehicle: water 104 % of control | dose: 300.0 mg/kg/injection, schedule: Q01DX005 (ip), vehicle: other 93 % of control | dose: 500.0 mg/kg/injection, schedule: Q01DX005 (oral), vehicle: water 110 % of control | dose: 1000.0 mg/kg/injection, schedule: Q01DX005 (oral), vehicle: water 103 % of control
